In US7504433B2, “Thiophene derivative PPAR modulators” (Eli Lilly and Company, priority 2003, dated 2009):

Work on `Cc1cc(OC[C@@H](C)c2sc(-c3ccc(C(F)(F)F)cc3)cc2C)ccc1CCC(=O)O` (single isomer, unassigned) [Example 16, 3-(2-Methyl-4-{2-[3-methyl-5-(4-trifluoromethylphenyl)thiophen-2-yl]propoxy}-phenyl)propionic acid] yielded a melting point of 126.2 to 132.6 °C.
